Common to all, as to assay: NCI tumour cell line growth inhibition, 48 h
Assay [1] concerns A549 NSCLC.
Assay [2] has as its system CCRF-CEM leukemia.
For assay [3], the system named is HCC-2998 colon.
Assay [4] concerns HCT-116 colon.
Assay [5] relates to HL-60(TB) leukemia.
The test system of assay [6] is IGROV1 ovarian.
Assay [7] has as its system K-562 leukemia.
Assay [8] deals with KM12 colon.
The test system of assay [9] is M14 melanoma.
The subject of assay [10] is MCF7 breast.
The test system of assay [11] is MOLT-4 leukemia.
In assay [12] the test system is OVCAR-4 ovarian.
In assay [13] the test system is OVCAR-5 ovarian.
The subject of assay [14] is SF-295 CNS.
Assay [15] concerns SK-MEL-5 melanoma.
The test system of assay [16] is SNB-19 CNS.
Assay [17] has as its system SNB-75 CNS.
The test system of assay [18] is SW-620 colon.
In assay [19] the test system is UACC-62 melanoma.
The subject of assay [20] is EKVX NSCLC.

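The compound was tested at five concentrations on cells cultured in 96-well plates, with a 48-hour exposure period. TGI marks complete inhibition of growth.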 Bounds are passed on as bounds.

Regarding `CCN(CCCl)c1cc(CN(C)C)cc(NC(=O)c2cc(C(=O)Nc3cc(CN(C)C)cc(N(CC)CCCl)c3)n(C)n2)c1`, the TGI in [1] was 1.8 µM; in [2] it was 0.299 µM; in assay [3], 2.11 µM; in assay [4], 1.3 µM; in [5], 4.04 µM; in assay [6], 0.38 µM. Besides, the TGI stood at 1.12 µM in assay [7]; 0.703 µM in assay [8]; 2.01 µM in [9]; 1.38 µM in assay [10]; 0.164 µM in [11]; 2.8 µM in [12]. Besides, the TGI in assay [13] came to 9.36 µM; in assay [14] it was 2.24 µM; in assay [15], 2.28 µM; in assay [16] it was 1.24 µM; in assay [17] it was 2.55 µM; in [18], 0.304 µM. The TGI in assay [19] was found to be 2.36 µM.
With `Nc1ncc(Sc2ccccc2C(=O)O)s1`, the TGI in assay [1], in assay [2], in assay [20], in [4], in assay [5] and in [6] was more than 100 µM in each case. For the same compound, the TGI in assay [7], in [8], in assay [9], in [10], in assay [11] and in assay [13] was more than 100 µM each time. The TGI in [14], in [15], in assay [16], in assay [17], in assay [18] and in assay [19] was more than 100 µM in each case.
`CCOP(=O)(/C=C\n1ccc(=O)[nH]c1=O)OCC`: the TGI in assay [1], in assay [2], in assay [20], in assay [4], in assay [5] and in assay [6] was more than 100 µM each time. The TGI in [7], in [8], in [9], in assay [10], in assay [11] and in [12] was more than 100 µM each time. The TGI in assay [13], in assay [14], in assay [15], in assay [16], in assay [17] and in assay [18] was more than 100 µM throughout. This compound had a TGI in assay [19] of more than 100 µM.
`COc1ccc2c(C(=O)c3c(C)n(CCN4CCOCC4)c4ccccc34)cccc2c1`: the TGI in assay [1] is more than 100 µM; in assay [2] it was 27.1 µM; in assay [20], more than 100 µM; in assay [4], more than 100 µM; in assay [5], 23.4 µM; in [6] it was more than 100 µM. Besides, the TGI in assay [7] was more than 100 µM; in assay [8], 68.2 µM; in [9], 87.7 µM; in [10] it was 55.9 µM; in assay [11], more than 100 µM; in [12], more than 100 µM. Moreover, the TGI was more than 100 µM in assay [13]; 49 µM in assay [14]; 35.2 µM in [15]; more than 100 µM in assay [16]; 55.4 µM in assay [18]; more than 100 µM in assay [19].
Regarding `CC(=O)OC1CC[C@@]2(C)C(=CC[C@@H]3[C@@H]2CC[C@]2(C)C(OC(C)=O)[C@H](n4ccnc4)C[C@@H]32)C1` (stereo partly specified), the TGI in assay [1] was more than 100 µM; in assay [2] it was 37.1 µM; in assay [20] it was more than 100 µM; in [4], 31.2 µM; in assay [5] it was 35.6 µM; in [6] it was more than 100 µM. For the same compound, the TGI in assay [7] was found to be 86.3 µM; in assay [8], 30.4 µM; in assay [9], 31.2 µM; in assay [10], 33.2 µM; in [11], 30.3 µM; in [12] it was 46.6 µM. The TGI is more than 100 µM in assay [13]; more than 100 µM in assay [14]; 30.3 µM in assay [15]; more than 100 µM in assay [16]; more than 100 µM in [17]; more than 100 µM in assay [18]. In addition, the TGI in assay [19] came to 30.3 µM.
Turning to `Nc1nc2c(c(=O)[nH]1)NC(CCNc1ccc(C(=O)O)cc1)CN2` (stereo unspecified), the TGI in [1], in assay [2], in assay [20], in [4], in assay [5] and in assay [6] was more than 100 µM throughout. The TGI in assay [7], in [8], in [9], in [10], in assay [11] and in [12] was more than 100 µM each time. Further, the TGI in assay [13], in [14], in assay [15], in assay [16], in assay [17] and in assay [18] was more than 100 µM each time. The compound further registered a TGI in assay [19] of more than 100 µM.
In the case of `CCN(CC)Cc1ccc(Nc2c3ccccc3nc3ccccc23)cc1`, the TGI in assay [1] is 2.82 µM; in [2], 8.28 µM; in [20] it was 26.2 µM; in [3] it was 2.4 µM; in [4], 6.99 µM; in [5] it was more than 100 µM. Further, the TGI is 13.9 µM in assay [6]; 7.69 µM in [7]; 13.1 µM in assay [8]; 3.15 µM in [9]; 4.36 µM in assay [10]; more than 100 µM in assay [11]. The TGI worked out at 7.64 µM in [12]; 5.46 µM in assay [13]; 10.9 µM in [14]; 3.15 µM in assay [15]; 3.22 µM in assay [16]; 4.12 µM in [18]. Further, the TGI in assay [19] came to 3.66 µM.
